ChEMBL document CHEMBL3244276, “Hydrogen-bonding parameter and its significance in quantitative structure--activity studies” (J Med Chem, 1977)

Experiments:
physchem [1] = details: octanol/water
physchem [2] = test: physchem
[3] = octanol/water
[4] = octanol/water; remark: listed apart in the source
[5] = octanol/water; remark: listed apart in the source
[6] = octanol/water; remark: listed apart in the source
[7] = octanol/water; remark: listed apart in the source

SMILES	logP (physchem [1])	further results
CNC(=O)Oc1cccc(C(C)=O)c1	0.9	–
COc1ccc(S(N)(=O)=O)cc1	0.47	–
CNC(=O)Oc1cccc(C)c1 [METOLCARB]	1.7	–
CCOc1ccc(OC(=O)NC)cc1	1.64	–
COc1cccc(OCC(=O)O)c1	1.38	–
CCc1ccccc1 [ETHYLBENZENE]	–	pKHB: -0.34
O=C(O)COc1ccc(F)cc1	1.41	–
CCC(N)=O [PROPIONAMIDE]	–	logP (physchem [2]; oil/water): -2.44
CCOC(N)=O	–	logP (physchem [2]; oil/water): -1.13
CNC(=O)Oc1cccc([N+](=O)[O-])c1	1.39	–
Nc1ccccc1 [ANILINE]	–	logP [3]: -0.05
CC(O)CO (stereo not drawn) [PROPYLENE GLYCOL]	–	logP (physchem [2]; oil/water): -2.77
COP(=O)(OC)Oc1ccccc1	1.22	pKHB: 2.21
O=C(O)COc1cccc([N+](=O)[O-])c1	1.37	–
CCCCC(=O)O [VALERIC ACID]	–	logP (physchem [2]; oil/water): 0.48
O=C(O)Cc1ccccc1 [PHENYLACETIC ACID]	1.41	–
O=[N+]([O-])c1ccccc1 [NITROBENZENE]	–	logP [4]: 2.93; logP [3]: 1.49
CCCCCO [1-PENTANOL]	–	logP [5]: 0.36
NS(=O)(=O)c1ccc(Cl)cc1 [P-CHLOROBENZENESULFONAMIDE]	0.84	–
CNC(=O)Oc1ccccc1OC	0.81	–
OCCO [ETHYLENE GLYCOL]	–	logP [6]: -2.28; logP (physchem [2]; octanol/water): -3.31
CNC(=O)Oc1cccc(Br)c1	2.25	–
CNC(=O)Oc1cccc(C#N)c1	0.98	–
NS(=O)(=O)c1ccccc1 [BENZENESULFONAMIDE]	0.31	–
CCCC(N)=O [BUTYRAMIDE]	–	logP (physchem [2]; oil/water): -2.02

SMILES	logP (physchem [1])	further results
CS(=O)(=O)c1cccc(OCC(=O)O)c1	0	–
CCOC(C)=O [ETHYL ACETATE]	–	logP (physchem [2]; oil/water): 0.4
Cc1cccc(O)c1 [METACRESOL]	2.02	–
CC(=O)OCC(COC(C)=O)OC(C)=O [TRIACETIN]	–	logP (physchem [2]; oil/water): -0.36
CC(=O)c1ccccc1 [ACETOPHENONE]	–	logP [3]: 1.14; pKHB: 1.13
CNC(=O)Oc1cccc(N(C)C)c1	1.43	–
Oc1ccc(I)cc1	2.91	–
NCc1ccccc1 [BENZYLAMINE]	–	logP [3]: -0.15
COc1cccc(O)c1 [1-hydroxy-3-methoxybenzene]	1.58	–
NS(=O)(=O)c1cccc([N+](=O)[O-])c1	0.55	–
CNC(=O)Oc1ccc(C(C)=O)cc1	1.01	–
N#Cc1ccc(S(N)(=O)=O)cc1	0.23	–
CNC(=O)Oc1ccc(I)cc1	2.46	–
CC(=O)Nc1cccc(OCC(=O)O)c1	0.47	–
OCCCCO [1,4-BUTANEDIOL]	–	logP [6]: -1.72; logP (physchem [2]; octanol/water): -2.68
OCc1ccccc1 [BENZYL ALCOHOL]	–	logP [3]: -0.76
Cc1ccc(OCC(=O)O)cc1	1.78	–
CCC(=O)O [PROPIONIC ACID]	–	logP [5]: -0.8
O=C(O)COc1ccccc1	1.26	–
Oc1cccc(Br)c1	2.63	–
CCOCC [ETHER]	–	logP (physchem [2]; oil/water): 0.38
O=C1CCC(=O)N1 [SUCCINIMIDE]	–	logP (physchem [2]; oil/water): -2.31
CC(=O)c1ccc(S(N)(=O)=O)cc1	0.2	–
O=Cc1ccccc1 [BENZALDEHYDE]	–	logP [3]: 1.11; pKHB: 0.8
COC(N)=O [METHYL CARBAMATE]	–	logP (physchem [2]; oil/water): -1.6

SMILES	logP (physchem [1])	further results
CCCCCC(=O)O [HEXANOATE]	–	logP [5]: 0.83
CN(C)C(=O)c1ccccc1	0.62	pKHB: 2.22
CCc1cccc(OCC(=O)O)c1	2.23	–
NS(=O)(=O)c1ccc([N+](=O)[O-])c(C(F)(F)F)c1	1.73	–
N#Cc1ccccc1 [BENZONITRILE]	1.56	logP [3]: 0.96; pKHB: 0.79
CNC(=O)Oc1cccc(C=O)c1	0.92	–
CN(C)Cc1ccccc1	1.98	logP [3]: 1.44; pKHB: 1.56
Oc1cccc(I)c1	2.93	–
Cc1cccc(S(N)(=O)=O)c1	0.85	–
Clc1ccccc1 [CHLOROBENZENE]	–	logP [3]: 2.98; pKHB: -0.8
CC(C)=O [ACETONE]	–	logP (physchem [2]; oil/water): -0.7
O=C(O)COc1cccc(C(=O)O)c1	1.11	–
CNC(=O)Oc1ccc([N+](=O)[O-])cc1 [4-NITROPHENYL METHYLCARBAMATE]	1.46	–
NS(=O)(=O)c1cccc(Cl)c1	1.29	–
Cc1ccc(S(N)(=O)=O)cc1 [P-TOLUENESULFONAMIDE]	0.82	–
COc1ccccc1 [ANISOLE]	–	pKHB: 0.02
Cc1ccccc1 [TOLUENE]	–	pKHB: -0.29
CS(=O)(=O)c1ccccc1 [METHYLPHENYLSULFONE]	0.47	pKHB: 1.05
O=C(O)COc1ccc(O)cc1	0.65	–
NS(=O)(=O)c1ccc([N+](=O)[O-])cc1	0.64	–
CNc1ccc(S(N)(=O)=O)cc1	0.08	–
CNC(=O)Oc1ccc(C=O)cc1	0.99	–
Brc1ccccc1 [BROMOBENZENE]	–	logP [3]: 3.08; pKHB: -0.84
CNC(=O)Oc1ccc(C(C)C)cc1	2.8	–
CC1OC(C)OC(C)O1 (stereo not drawn)	–	logP (physchem [2]; oil/water): 0.28

SMILES	logP (physchem [1])	further results
CNC(=O)Oc1ccccc1[N+](=O)[O-]	1.02	–
CCOc1ccccc1OC(=O)NC	1.24	–
Oc1cccc(F)c1	1.93	–
CC(C)CC(N)=O [ISOVALERAMIDE]	–	logP (physchem [2]; oil/water): -1.64
O=C(O)COc1cccc(C(F)(F)F)c1	2.33	–
CNC(=O)Oc1ccccc1OC(C)C [PROPOXUR]	1.52	–
CNC(=O)Oc1ccccc1I	1.96	–
Oc1ccccc1 [PHENOL]	–	logP [7]: 1.3; logP [4]: 0.36; logP [3]: -0.89
CCOc1ccccc1 [PHENETOLE]	2.51	pKHB: 0.22
O=C(O)COc1cccc(Cl)c1	2.02	–
CNC(=O)Oc1cccc(Cl)c1	2.03	–
CNC(=O)Oc1ccc(C#N)cc1 [4-CYANOPHENYL METHYLCARBAMATE]	0.95	–
CNC(=O)Oc1cccc(C(C)C)c1	2.63	–
OCCCCCCO [1,6-HEXANEDIOL]	–	logP (physchem [2]; oil/water): -2.17
C1N2CN3CN1CN(C2)C3 [METHENAMINE]	–	logP (physchem [2]; oil/water): -3.68
CN(C)c1ccccc1	–	logP [3]: 2.38; pKHB: 0.45
CC(O)C(C)O (stereo not drawn)	–	logP (physchem [2]; oil/water): -2.47
C[C@H](O)CCO [1,3-BUTANEDIOL]	–	logP (physchem [2]; oil/water): -2.37
CNC(=O)Oc1ccccc1C#N	0.86	–
COc1ccc(O)cc1 [MEQUINOL]	1.34	–
CC(=O)N(C)c1ccccc1	1.12	logP [3]: -0.4; pKHB: 2
CNC(=O)Oc1cccc(OC)c1	1.3	–
NS(=O)(=O)c1ccc(Br)cc1	1.36	–
